# Laboratory results taken from ChEMBL document CHEMBL4393714, “Multi-targeting protein-protein interaction inhibitors: Evolution of macrocyclic ligands with embedded carbohydrates (MECs) to improve selectivity” (Eur J Med Chem, 2019).
# Columns and labels:
# [1] = target: Sodium-dependent noradrenaline transporter (Homo sapiens) (UniProt P23975); experiment: Displacement of [3H] nisoxetine from human recombinant norepinephrine transporter at 10 uM measured after 120 mins by scintillation counter method relative to control
# Sequence of Sodium-dependent noradrenaline transporter (Homo sapiens) (P23975 whole entry): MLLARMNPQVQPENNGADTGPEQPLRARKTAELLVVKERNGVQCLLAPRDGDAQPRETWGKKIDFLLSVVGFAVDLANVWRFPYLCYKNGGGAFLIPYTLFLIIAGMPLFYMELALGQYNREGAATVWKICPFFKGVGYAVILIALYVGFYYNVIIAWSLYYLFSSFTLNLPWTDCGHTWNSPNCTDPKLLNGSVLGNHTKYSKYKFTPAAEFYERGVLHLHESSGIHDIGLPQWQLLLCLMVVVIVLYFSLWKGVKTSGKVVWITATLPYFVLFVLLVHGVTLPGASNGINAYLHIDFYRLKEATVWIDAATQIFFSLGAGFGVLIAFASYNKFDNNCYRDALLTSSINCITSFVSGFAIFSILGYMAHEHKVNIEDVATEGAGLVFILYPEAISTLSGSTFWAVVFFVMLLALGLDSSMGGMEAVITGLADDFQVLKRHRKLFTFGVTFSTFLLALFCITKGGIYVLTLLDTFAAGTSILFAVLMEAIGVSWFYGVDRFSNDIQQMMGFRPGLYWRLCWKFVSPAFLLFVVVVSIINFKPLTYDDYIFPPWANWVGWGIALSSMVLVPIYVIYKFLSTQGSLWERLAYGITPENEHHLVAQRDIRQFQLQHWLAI
# [2] = species: Rattus norvegicus; experiment: Displacement of [3H] TBPS from rat GABA gated chloride channel at 10 uM measured after 120 mins by scintillation counter method relative to control
# [3] = target: Small conductance calcium-activated potassium channel (Rattus norvegicus) (UniProt P70604+P70606+P70605); experiment: Displacement of [125I]apamin from rat brain SKCa at 10 uM measured after 60 mins by scintillation counter method relative to control
# [4] = target: Somatostatin receptor type 1 (Homo sapiens) (UniProt P30872); experiment: Displacement of [125I] tyr11-somatostatin-14 from human recombinant somatostatin receptor type1 at 10 uM measured after 180 mins by scintillation counter method relative to control
# Sequence of Somatostatin receptor type 1 (Homo sapiens) (P30872 whole entry): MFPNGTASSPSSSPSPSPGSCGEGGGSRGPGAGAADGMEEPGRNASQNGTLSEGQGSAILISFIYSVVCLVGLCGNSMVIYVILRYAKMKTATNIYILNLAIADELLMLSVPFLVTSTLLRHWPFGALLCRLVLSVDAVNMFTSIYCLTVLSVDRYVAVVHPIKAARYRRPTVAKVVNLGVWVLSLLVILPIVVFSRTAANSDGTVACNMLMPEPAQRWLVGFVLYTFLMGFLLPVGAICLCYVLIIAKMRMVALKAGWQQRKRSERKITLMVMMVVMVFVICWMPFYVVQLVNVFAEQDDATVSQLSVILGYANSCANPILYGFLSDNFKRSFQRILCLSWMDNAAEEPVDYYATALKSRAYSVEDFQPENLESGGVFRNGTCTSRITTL
# [5] = target: 5-hydroxytryptamine receptor 5A (Homo sapiens) (UniProt P47898); experiment: Displacement of [3H]LSD from human recombinant 5-HT5A receptor at 10 uM measured after 120 mins by scintillation counter method relative to control
# [6] = target: 5-hydroxytryptamine receptor 3A (Homo sapiens) (UniProt P46098); experiment: Displacement of [3H] BRL 43694 from human 5-HT3 at 10 uM measured after 120 mins by scintillation counter method relative to control
# Sequence of 5-hydroxytryptamine receptor 3A (Homo sapiens) (P46098 whole entry): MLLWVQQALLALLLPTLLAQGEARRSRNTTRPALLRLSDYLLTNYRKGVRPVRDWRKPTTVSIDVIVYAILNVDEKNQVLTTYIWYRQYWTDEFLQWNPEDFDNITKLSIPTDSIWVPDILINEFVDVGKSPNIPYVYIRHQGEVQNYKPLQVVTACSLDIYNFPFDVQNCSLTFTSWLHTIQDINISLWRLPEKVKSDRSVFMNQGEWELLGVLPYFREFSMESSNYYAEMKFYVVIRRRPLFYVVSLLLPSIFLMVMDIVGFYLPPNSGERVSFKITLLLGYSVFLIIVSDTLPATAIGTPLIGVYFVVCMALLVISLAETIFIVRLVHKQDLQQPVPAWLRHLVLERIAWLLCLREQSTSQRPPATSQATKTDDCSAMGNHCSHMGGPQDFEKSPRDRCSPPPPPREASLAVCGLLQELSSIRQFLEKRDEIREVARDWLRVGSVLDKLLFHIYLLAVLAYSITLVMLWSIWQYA
# [7] = target: T1, 5-hydroxytryptamine receptor 2B (Homo sapiens, UniProt P41595); experiment: Displacement of [125I](+/-)DOI from human recombinant 5-HT2B receptor at 10 uM measured after 60 mins by scintillation counter method relative to control
# T1 sequence (P41595 whole entry): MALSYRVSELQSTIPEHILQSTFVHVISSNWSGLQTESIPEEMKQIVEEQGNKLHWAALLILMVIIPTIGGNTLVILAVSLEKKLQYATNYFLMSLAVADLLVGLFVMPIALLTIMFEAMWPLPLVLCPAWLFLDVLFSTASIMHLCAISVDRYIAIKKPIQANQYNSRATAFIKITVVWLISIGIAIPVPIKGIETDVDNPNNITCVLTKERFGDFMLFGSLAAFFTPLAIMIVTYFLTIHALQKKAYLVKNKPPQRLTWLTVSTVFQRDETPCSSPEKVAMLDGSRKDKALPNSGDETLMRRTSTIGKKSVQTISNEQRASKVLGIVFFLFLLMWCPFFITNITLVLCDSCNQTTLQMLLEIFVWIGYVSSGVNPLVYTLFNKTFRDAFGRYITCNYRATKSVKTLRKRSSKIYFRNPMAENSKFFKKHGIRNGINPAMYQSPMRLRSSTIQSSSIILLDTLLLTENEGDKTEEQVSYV
# [8] = target: 5-hydroxytryptamine receptor 1B (Homo sapiens) (UniProt P28222); experiment: Displacement of [3H] GR125743 from human recombinant 5-HT1B receptor at 10 uM measured after 60 mins by scintillation counter method relative to control
# [9] = target: Nociceptin receptor (Homo sapiens) (UniProt P41146); experiment: Displacement of [3H]nociceptin from human recombinant ORL1 at 10 uM measured after 60 mins by scintillation counter method relative to control
# Sequence of Nociceptin receptor (Homo sapiens) (P41146 whole entry): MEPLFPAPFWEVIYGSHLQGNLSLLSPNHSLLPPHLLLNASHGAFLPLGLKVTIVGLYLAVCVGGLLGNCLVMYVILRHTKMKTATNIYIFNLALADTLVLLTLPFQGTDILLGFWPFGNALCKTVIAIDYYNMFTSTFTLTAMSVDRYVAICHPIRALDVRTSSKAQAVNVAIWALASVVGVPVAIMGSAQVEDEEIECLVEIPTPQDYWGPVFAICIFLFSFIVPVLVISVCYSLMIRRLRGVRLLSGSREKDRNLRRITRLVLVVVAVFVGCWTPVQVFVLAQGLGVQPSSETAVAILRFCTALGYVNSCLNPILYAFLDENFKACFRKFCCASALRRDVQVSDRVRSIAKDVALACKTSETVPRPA
# [10] = target: Mu-type opioid receptor (Homo sapiens) (UniProt P35372); experiment: Displacement of [3H] DAMGO from human recombinant mu opioid receptor at 10 uM measured after 120 mins by scintillation counter method relative to control
# [11] = target: Kappa-type opioid receptor (Homo sapiens) (UniProt P41145); experiment: Displacement of [3H] U69593 from human kappa opioid receptor at 10 uM measured after 60 mins by scintillation counter method relative to control
# [12] = target: Neurotensin receptor type 1 (Homo sapiens) (UniProt P30989); experiment: Displacement of [125I]Tyr3-neurotensin from human recombinant neurotensin receptor type1 at 10 uM measured after 60 mins by scintillation counter method relative to control
# Sequence of Neurotensin receptor type 1 (Homo sapiens) (P30989 whole entry): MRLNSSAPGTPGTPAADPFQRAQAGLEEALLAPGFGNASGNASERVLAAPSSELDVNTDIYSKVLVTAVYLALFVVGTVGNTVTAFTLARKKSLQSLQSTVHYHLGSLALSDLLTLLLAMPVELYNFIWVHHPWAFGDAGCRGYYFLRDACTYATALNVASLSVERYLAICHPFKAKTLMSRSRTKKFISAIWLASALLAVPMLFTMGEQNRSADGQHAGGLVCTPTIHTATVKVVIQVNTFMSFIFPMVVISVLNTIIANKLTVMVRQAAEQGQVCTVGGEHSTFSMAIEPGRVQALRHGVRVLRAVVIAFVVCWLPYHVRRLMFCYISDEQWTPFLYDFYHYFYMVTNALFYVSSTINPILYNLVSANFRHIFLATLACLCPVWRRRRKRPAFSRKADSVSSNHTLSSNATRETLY
# [13] = target: Neuropeptide Y receptor type 2 (Homo sapiens) (UniProt P49146); experiment: Displacement of [125I] peptide YY from human neuropeptide Y2 receptor at 10 uM measured after 60 mins by scintillation counter method relative to control
# [14] = target: Muscarinic acetylcholine receptor M1 (Homo sapiens) (UniProt P11229); experiment: Displacement of [3H]pirenzepine from human recombinant muscarinic 1 receptor at 10 uM measured after 60 mins by scintillation counter method relative to control
# Sequence of Muscarinic acetylcholine receptor M1 (Homo sapiens) (P11229 whole entry): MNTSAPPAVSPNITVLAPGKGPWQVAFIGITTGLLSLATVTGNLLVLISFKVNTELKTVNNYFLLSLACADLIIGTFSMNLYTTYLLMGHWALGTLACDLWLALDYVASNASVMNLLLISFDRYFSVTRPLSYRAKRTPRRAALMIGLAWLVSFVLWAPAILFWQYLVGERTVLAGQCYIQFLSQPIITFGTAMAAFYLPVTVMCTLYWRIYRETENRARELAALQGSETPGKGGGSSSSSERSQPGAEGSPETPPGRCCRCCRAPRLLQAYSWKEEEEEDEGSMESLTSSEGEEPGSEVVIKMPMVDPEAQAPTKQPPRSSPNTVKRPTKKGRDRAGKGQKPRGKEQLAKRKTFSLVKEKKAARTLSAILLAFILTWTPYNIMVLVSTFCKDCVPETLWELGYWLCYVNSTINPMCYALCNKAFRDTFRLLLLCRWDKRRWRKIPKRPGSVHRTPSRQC
# [15] = target: Melatonin receptor type 1A (Homo sapiens) (UniProt P48039); experiment: Displacement of [125I]2-iodomelatonin from human recombinant MT 1 receptor at 10 uM measured after 60 mins by scintillation counter method relative to control
# [16] = target: Histamine H2 receptor (Homo sapiens) (UniProt P25021); experiment: Displacement of [125I]APT from human recombinant H2 receptor at 10 uM measured after 120 mins by scintillation counter method relative to control
# [17] = target: C-X-C chemokine receptor type 2 (Homo sapiens) (UniProt P25025); experiment: Displacement of [125I]IL-8 from human recombinant CXCR2 receptor at 10 uM measured after 60 mins by scintillation counter method relative to control
# [18] = target: Endothelin-1 receptor (Homo sapiens) (UniProt P25101); experiment: Displacement of [125I]endothelin-1 from human recombinant ETA receptor at 10 uM measured after 120 mins by scintillation counter method relative to control
# [19] = target: Beta-1 adrenergic receptor (Homo sapiens) (UniProt P08588); experiment: Displacement of [3H] (-)CGP 12177 from human recombinant beta1 adreno receptor at 10 uM measured after 60 mins by scintillation counter method relative to control
# [20] = target: Adrenergic receptor alpha-2 (Rattus norvegicus) (UniProt P22086+P19328+P22909); experiment: Displacement of [3H] RX 821002 from rat alpha2 adreno receptor at 10 uM measured after 60 mins by scintillation counter method relative to control; assay type: protein assay
# [21] = target: Adrenergic receptor alpha-1 (Rattus norvegicus) (UniProt P15823+P23944+P43140); experiment: Displacement of [3H] prazosin from rat alpha1 adreno receptor at 10 uM measured after 60 mins by scintillation counter method relative to control; assay type: protein assay
# [22] = target: Adenosine receptor A2a (Homo sapiens) (UniProt P29274); experiment: Displacement of [3H]CGS 21680 from human recombinant A2A receptor at 10 uM measured after 120 mins by scintillation counter method relative to control
# [23] = target: Adenosine receptor A1 (Homo sapiens) (UniProt P30542); experiment: Displacement of [3H]DPCPX from human recombinant A1 receptor at 10 uM measured after 60 mins by scintillation counter method relative to control
# Sequence of Adenosine receptor A1 (Homo sapiens) (P30542 whole entry): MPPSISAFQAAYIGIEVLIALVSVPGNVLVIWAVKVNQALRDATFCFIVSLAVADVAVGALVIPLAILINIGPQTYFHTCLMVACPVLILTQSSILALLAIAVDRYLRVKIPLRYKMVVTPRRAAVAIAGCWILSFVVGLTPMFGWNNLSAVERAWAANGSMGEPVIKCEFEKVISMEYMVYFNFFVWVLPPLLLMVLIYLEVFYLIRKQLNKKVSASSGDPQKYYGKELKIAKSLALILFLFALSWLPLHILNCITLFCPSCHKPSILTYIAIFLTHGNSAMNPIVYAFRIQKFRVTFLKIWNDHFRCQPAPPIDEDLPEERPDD
# [24] = target: 5-hydroxytryptamine receptor 2A (Homo sapiens, UniProt P28223); experiment: Displacement of [3H] ketanserin from human recombinant 5-HT2A receptor measured after 60 mins by scintillation counter method
# Sequence of 5-hydroxytryptamine receptor 2A (P28223 whole entry): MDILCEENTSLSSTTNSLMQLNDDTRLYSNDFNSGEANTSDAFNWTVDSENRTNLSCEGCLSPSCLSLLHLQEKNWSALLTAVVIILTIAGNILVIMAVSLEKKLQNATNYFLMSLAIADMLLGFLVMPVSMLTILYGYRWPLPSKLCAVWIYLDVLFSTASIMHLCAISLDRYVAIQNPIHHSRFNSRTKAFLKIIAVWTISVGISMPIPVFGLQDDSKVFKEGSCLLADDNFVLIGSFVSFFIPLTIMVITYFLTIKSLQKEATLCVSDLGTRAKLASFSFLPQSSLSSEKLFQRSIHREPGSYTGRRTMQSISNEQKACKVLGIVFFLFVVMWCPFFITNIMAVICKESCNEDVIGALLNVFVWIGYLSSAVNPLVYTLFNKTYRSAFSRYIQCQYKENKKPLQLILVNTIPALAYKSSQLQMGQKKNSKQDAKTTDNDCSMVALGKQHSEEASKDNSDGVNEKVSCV
# [25] = target: T1, 5-hydroxytryptamine receptor 2B; experiment: Antagonist activity at human recombinant 5-HT2B receptor in CHOK1 cells measured after 30 mins by HTRF assay; assay type: cell-based
# [26] = target: Sodium-dependent serotonin transporter (Homo sapiens, UniProt P31645); experiment: Displacement of [3H] imipramine from human recombinant 5-HT transporter measured after 60 mins by scintillation counter method
# Sequence of Sodium-dependent serotonin transporter (P31645 whole entry): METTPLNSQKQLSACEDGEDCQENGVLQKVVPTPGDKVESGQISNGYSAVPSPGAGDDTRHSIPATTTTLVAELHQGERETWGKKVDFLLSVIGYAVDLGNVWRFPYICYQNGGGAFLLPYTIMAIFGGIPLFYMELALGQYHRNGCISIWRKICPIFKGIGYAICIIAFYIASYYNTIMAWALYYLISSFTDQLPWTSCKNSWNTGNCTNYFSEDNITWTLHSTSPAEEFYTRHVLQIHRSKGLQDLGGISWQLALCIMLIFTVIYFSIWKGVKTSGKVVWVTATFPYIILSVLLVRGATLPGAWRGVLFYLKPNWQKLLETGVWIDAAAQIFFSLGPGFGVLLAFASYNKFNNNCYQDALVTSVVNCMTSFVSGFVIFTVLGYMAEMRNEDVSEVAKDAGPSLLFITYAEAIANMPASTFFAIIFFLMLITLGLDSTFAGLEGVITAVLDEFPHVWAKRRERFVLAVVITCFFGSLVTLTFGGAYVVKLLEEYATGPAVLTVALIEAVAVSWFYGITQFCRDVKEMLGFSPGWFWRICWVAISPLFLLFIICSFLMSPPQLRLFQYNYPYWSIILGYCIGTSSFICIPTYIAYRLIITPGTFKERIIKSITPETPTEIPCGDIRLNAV
# [27] = target: Beta-2 adrenergic receptor (Homo sapiens) (UniProt P07550); experiment: Agonist activity at human beta 2 adreno receptor at 10 uM relative to control
compound,measurement,setting,value
CC(C)CCO[C@@H]1[C@H]2OC(C)(C)O[C@H]2[C@H]2Cn3cc(nn3)COCCCCCCN(CCc3ccc4ccccc4c3)CC[C@H]1O2,inhibition,[1],55.7%
same,inhibition,[2],62.4%
same,inhibition,[3],1.4%
same,inhibition,[4],14%
same,inhibition,[5],89%
same,inhibition,[6],25.2%
same,inhibition,[7],81.6%
same,inhibition,[8],19%
same,inhibition,[9],9.9%
same,inhibition,[10],96.5%
same,inhibition,[11],77.9%
same,Activity,[12],15.7%
same,inhibition,[13],10.8%
same,inhibition,[14],31%
same,inhibition,[15],29.2%
same,inhibition,[16],27.4%
same,inhibition,[17],20.9%
same,Activity,[18],7.1%
same,inhibition,[19],10.6%
same,inhibition,[20],5%
same,inhibition,[21],57.7%
same,inhibition,[22],14.6%
same,inhibition,[23],19%
same,IC50,[24],1800 nM
same,Ki,[24],970 nM
same,IC50,[25],1600 nM
same,Ki,[25],870 nM
same,IC50,[26],7400 nM
same,Ki,[26],3400 nM
same,inhibition,[27],3.9%
